What all share (type): cell-based
One assay concerns Septoria tritici. Kind of assay: Activity against leaf blotch on wheat caused by Septoria tritici (microtiter plate). Conditions: active compound alone, 7 days after inoculation.
For the next assay, the system named is Botrytis cinerea. As to the kind of experiment: Activity against the grey mold Botrytis cinerea in the microtiterplate test.
The next assay has as its system Pyricularia oryzae. To be noted: active compound alone, 7 days after inoculation.
The mark [1] stands for this setting: Botrytis cinerea, 168 h, active compound alone, 0.063 ppm, 7 days after inoculation, read-out: Observed efficacy.
Setting [2] is: Botrytis cinerea, 168 h, active compound alone, 7 days after inoculation, read-out: Observed efficacy.

Where two headings read alike, the source gives them in different places.

Consider `Fc1ccc([C@]2(Cn3cncn3)O[C@H]2c2ccccc2Cl)cc1` (racemic) [Epoxiconazol, (2RS,3SR)-1-[3-(2-chlorophenyl)-2,3-epoxy-2-(4-fluorophenyl)propyl]-1H-1,2,4-triazole, reference compound], for which, in the assay on Septoria tritici (0.063 ppm), the Observed efficacy came to 66%. Besides, in the assay on Botrytis cinerea (Botrytis cinerea, 168 h, active compound alone, 0.25 ppm, 7 days after inoculation, read-out: Observed efficacy), the inhibition of growth at 0.25 ppm stood at 37%.
Regarding `CC(C)OC(=O)N[C@H](C(=O)N[C@H](C)c1nc2ccc(F)cc2s1)C(C)C` [Benthivalicarb, isopropyl {(S)-1-[(1R)-1-(6-fluorobenzothiazol-2-yl)ethylcarbamoyl]-2-methylpropyl}carbamate, reference compound], the inhibition of growth at 0.063 ppm in the assay with Botrytis cinerea (Botrytis cinerea, 168 h, read-out: Observed efficacy) is 0%.
`COC(=O)Nc1nc2ccccc2[nH]1` [Carbendazim, methyl (1H-benzoimidazol-2-yl)-carbamate, reference compound]: in the assay with Pyricularia oryzae (0.25 ppm), the Observed efficacy worked out at 30%. Moreover, in the assay with Botrytis cinerea (setting [1]), the inhibition of growth at 0.063 ppm worked out at 74%.
Take `OC(c1cccnc1)c1c(-c2ccc(Cl)cc2Cl)noc1-c1cccc(Cl)c1` (centres unmarked) [Cmpd No. 4, 5-(3-Chlorophenyl)-3-(2,4-dichlorophenyl)-4-[(3-pyridyl)hydroxymethyl]-isoxazole]: the inhibition of growth at 0.001 ppm in the assay on Botrytis cinerea (setting [2]) amounted to 2%.
For the molecule `CC(C)(C)c1onc(-c2ccc(Cl)cc2Cl)c1C(O)c1cccnc1` (centres unmarked) [Cmpd No. 7, 3-(2,4-Dichlorophenyl)-5-(1,1-dimethylethyl)-4-[(3-pyridyl)hydroxymethyl]-isoxazole], the Observed efficacy in the assay with Pyricularia oryzae (0.001 ppm) is reported as 2%.
Turning to `OC(c1cccnc1)c1c(-c2ccc(Cl)cc2)noc1-c1ccc(F)cc1` (centres unmarked) [Cmpd No. 88, 3-(4-Chlorophenyl)-5-(4-fluorophenyl)-4-[(3-pyridyl)-hydroxymethyl]-isoxazole], the Observed efficacy in the assay on Pyricularia oryzae (1 ppm) was 3%.
On to `OC(c1cccnc1)c1c(-c2ccc(F)cc2)noc1-c1ccccc1Cl` (centres unmarked) [Cmpd No. 90, 5-(2-Chlorophenyl)-3-(4-fluorophenyl)-4-[(3-pyridyl)-hydroxymethyl]-isoxazole], for which the Observed efficacy in the assay on Pyricularia oryzae (0.000063 ppm) worked out at 6%; with Septoria tritici (0.00025 ppm), 9%. Also, the inhibition of growth at 4e-06 ppm in the assay with Botrytis cinerea (Botrytis cinerea, 168 h, active compound alone, 0.000004 ppm, 7 days after inoculation, read-out: Observed efficacy) was 5%. In addition, the inhibition of growth at 1.6e-05 ppm with Botrytis cinerea (Botrytis cinerea, 168 h, active compound alone, 0.000016 ppm, 7 days after inoculation, read-out: Observed efficacy) was found to be 5%. Also, the inhibition of growth at 6.3e-05 ppm with Botrytis cinerea (Botrytis cinerea, 168 h, active compound alone, 0.000063 ppm, 7 days after inoculation, read-out: Observed efficacy) was 1%. In addition, the inhibition of growth at 0.00025 ppm in the assay on Botrytis cinerea (setting [2]) turned out to be 1%.
`OC(c1cccnc1)c1c(-c2cc(F)cc(F)c2)noc1-c1ccc(Cl)cc1` (centres unmarked) [Cmpd No. 124, 5-(4-Chlorophenyl)-3-(3,5-difluorophenyl)-4-[(3-pyridyl)-hydroxymethyl]-isoxazole]: the inhibition of growth at 0.001 ppm with Botrytis cinerea (setting [2]) stood at 1%.
Take `OC(c1cccnc1)c1c(-c2ccc(Cl)cc2F)noc1-c1ccccc1F` (centres unmarked) [Cmpd No. 144, 3-(4-Chloro-2-fluorophenyl)-4-[(3-pyridyl)-hydroxymethyl]-5-(2-fluorophenyl)-isoxazole]: the Observed efficacy in the assay with Septoria tritici (0.016 ppm) was 16%. Moreover, in the assay with Botrytis cinerea (setting [2]), the inhibition of growth at 0.00025 ppm turned out to be 4% and the inhibition of growth at 0.001 ppm is 2%.
In the assay with Pyricularia oryzae (0.000063 ppm), `OC(c1cccnc1)c1c(-c2ccc(F)cc2F)noc1-c1ccc(Cl)cc1F` (centres unmarked) [Cmpd No. 145, 3-(2,4-Difluorophenyl)-4-[(3-pyridyl)-hydroxymethyl]-5-(4-chloro-2-fluorophenyl)-isoxazole] gave an Observed efficacy of 10%. For the same molecule, the inhibition of growth at 0.001 ppm in the assay with Botrytis cinerea (setting [2]) was 20%.
Turning to `OC(Cc1ccccc1Cl)(Cn1nc[nH]c1=S)C1(Cl)CC1` (centres unmarked) [Prothioconazol, 2-[2-(1-chlorocyclopropyl)-3-(2-chlorophenyl)-2-hydroxypropyl]-2,4-dihydro-[1,2,4]triazole-3-thione, reference compound], the inhibition of growth at 1 ppm with Botrytis cinerea (Botrytis cinerea, 168 h, active compound alone, 1 ppm, 7 days after inoculation, read-out: Observed efficacy) is 46%.
In the assay on Pyricularia oryzae (0.016 ppm), `COC(=O)N(OC)c1ccccc1COc1ccn(-c2ccc(Cl)cc2)n1` [Pyraclostrobin, reference compound] came in with an Observed efficacy of 67%.
Take `Cc1cc(C)nc(Nc2ccccc2)n1` [Pyrimethanil, 4,6-dimethylpyrimidin-2-ylphenylamine, reference compound]: the Observed efficacy in the assay with Septoria tritici (16 ppm) is recorded as 38%. Besides, the inhibition of growth at 0.063 ppm in the assay on Botrytis cinerea (setting [1]) stood at 5%.
“manganese ethylenebis(dithiocarbanate) zinc complex [Mancozeb]”: the Observed efficacy with Septoria tritici (4 ppm) was 52%.
The molecule “zinc propylenebis(dithiocarbamate) polymer [Propineb, reference compound]” had an Observed efficacy in the assay with Botrytis cinerea (active compound alone, 4 ppm, 7 days after inoculation) of 32%.

The values are drawn from patent US20100179059A1, “Fungicidal Mixtures” (BASF SE, priority 2007, published 2010).
